Results: patent US20150031668A1, “CHROMAN DERIVATIVES AS TRPM8 INHIBITORS” (AMGEN INC., priority 2013, published 2015)

molecular target: T1, human TRPM8 (Homo sapiens, UniProt Q7Z2W7); assay: Luminescence readout assay for measuring intracellular calcium (aequorin, CHO cells expressing human TRPM8; icilin, L-menthol or cold activation); type: cell-based; details: CHO cells expressing human TRPM8, icilin activation (1 μM), aequorin luminescence; read-out: hTRPM8 IC50
T1 construct: expressed in transfected cells; host or cells: Chinese hamster ovary (CHO) cells, T-REx tetracycline-inducible expression system (Invitrogen); co-transfected with pcDNA3.1 aequorin
T1 sequence (Q7Z2W7 whole entry): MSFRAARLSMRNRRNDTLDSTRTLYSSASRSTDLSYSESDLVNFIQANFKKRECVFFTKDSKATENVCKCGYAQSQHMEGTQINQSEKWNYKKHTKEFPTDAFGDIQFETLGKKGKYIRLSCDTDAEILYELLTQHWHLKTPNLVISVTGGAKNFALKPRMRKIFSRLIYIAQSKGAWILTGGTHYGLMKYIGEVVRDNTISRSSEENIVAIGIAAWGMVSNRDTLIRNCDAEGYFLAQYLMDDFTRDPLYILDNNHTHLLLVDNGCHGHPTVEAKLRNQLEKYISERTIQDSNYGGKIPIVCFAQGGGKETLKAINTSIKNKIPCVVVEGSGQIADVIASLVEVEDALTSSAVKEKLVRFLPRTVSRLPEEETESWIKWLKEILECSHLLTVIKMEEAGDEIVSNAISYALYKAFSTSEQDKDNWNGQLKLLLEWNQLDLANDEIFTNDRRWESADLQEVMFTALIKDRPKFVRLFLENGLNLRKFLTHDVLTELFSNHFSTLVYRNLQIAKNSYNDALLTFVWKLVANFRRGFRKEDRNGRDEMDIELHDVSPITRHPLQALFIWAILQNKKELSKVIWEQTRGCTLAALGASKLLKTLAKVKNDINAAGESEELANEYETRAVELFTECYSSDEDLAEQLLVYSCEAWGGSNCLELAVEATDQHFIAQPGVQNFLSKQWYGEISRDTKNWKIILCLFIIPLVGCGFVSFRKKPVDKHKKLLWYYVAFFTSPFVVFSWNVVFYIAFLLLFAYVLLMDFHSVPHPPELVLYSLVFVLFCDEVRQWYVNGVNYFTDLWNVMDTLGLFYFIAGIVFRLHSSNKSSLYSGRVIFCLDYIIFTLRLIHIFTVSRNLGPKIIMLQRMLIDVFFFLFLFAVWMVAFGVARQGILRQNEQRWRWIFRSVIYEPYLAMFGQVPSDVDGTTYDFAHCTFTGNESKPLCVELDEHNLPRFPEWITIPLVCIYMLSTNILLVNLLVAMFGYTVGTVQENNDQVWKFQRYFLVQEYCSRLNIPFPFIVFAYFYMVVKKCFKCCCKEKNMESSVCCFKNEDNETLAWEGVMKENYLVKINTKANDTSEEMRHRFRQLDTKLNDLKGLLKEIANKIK
Experimental: Luminescence Readout Assay for Measuring Intracellular Calcium
A stable Chinese hamster ovary cell line expressing human TRPM8 was generated using tetracycline inducible T-REx™ expression system from Invitrogen, Inc. (Carlsbad, Calif.). […] Twenty four hours before the assay, cells were seeded in 96-well plates and TRPM8 expression was induced with 0.5 μg/ml tetracycline. On the day of the assay, culture media was removed and cells were incubated with assay buffer
Potential antagonists were added 2.5 min prior to the addition of agonist, 1 μM icilin, 100 μM L-menthol, or 1 min prior to the addition of cold buffer (<10° C.). The luminescence was measured by a CCD camera based FLASH-luminometer built by Amgen, Inc. A cooling device attached to FLASH luminometer was used for cold activation.

Structure (SMILES) | IC50
O=C(N[C@]1(c2ccc(OC(F)(F)F)c(F)c2)CCOc2cccnc21)c1ccc2nccn2c1 [Example 52, (S)-N-(4-(3-fluoro-4-(trifluoromethoxy)phenyl)-3,4-dihydro-2H-pyrano[3,2-b]pyridin-4-yl)imidazo[1,2-a]pyridine-6-carboxamide] | 16 nM
Cn1ncc2cc(C(=O)N[C@]3(c4ccc(OC(F)(F)F)c(F)c4)CCOc4cccnc43)ccc21 [Example 53, (S)-N-(4-(3-fluoro-4-(trifluoromethoxy)phenyl)-3,4-dihydro-2H-pyrano[3,2-b]pyridin-4-yl)-1-methyl-1H-indazole-5-carboxamide] | 15 nM
O=C1CCc2cc(C(=O)N[C@]3(c4ccc(OC(F)(F)F)c(F)c4)CCOc4cccnc43)ccc2N1 [Example 54, (S)-N-(4-(3-fluoro-4-(trifluoromethoxy)phenyl)-3,4-dihydro-2H-pyrano[3,2-b]pyridin-4-yl)-2-oxo-1,2,3,4-tetrahydroquinoline-6-carboxamide] | 11 nM
O=C(N[C@]1(c2ccc(OC(F)(F)F)c(F)c2)CCOc2cccnc21)c1ccc(F)cn1 [Example 55, (S)-5-fluoro-N-(4-(3-fluoro-4-(trifluoromethoxy)phenyl)-3,4-dihydro-2H-pyrano[3,2-b]pyridin-4-yl)picolinamide] | 22 nM
O=C(N[C@]1(c2ccc(C(F)(F)F)cc2)CCOc2cccnc21)c1ccc2cccnc2c1 [Example 56, (S)-N-(4-(4-(trifluoromethyl)phenyl)-3,4-dihydro-2H-pyrano[3,2-b]pyridin-4-yl)quinoline-7-carboxamide] | 21 nM
O=C(N[C@]1(c2ccc(OC(F)(F)F)c(F)c2)CCOc2cccnc21)c1ccc2oc(=O)[nH]c2c1 [Example 57, (S)-N-(4-(3-fluoro-4-(trifluoromethoxy)phenyl)-3,4-dihydro-2H-pyrano[3,2-b]pyridin-4-yl)-2-oxo-2,3-dihydrobenzo[d]oxazole-5-carboxamide] | 4 nM
O=C(N[C@]1(c2ccc(C(F)(F)F)cc2)CCOc2cccnc21)c1ccc(=O)[nH]c1 [Example 60, (S)-6-oxo-N-(4-(4-(trifluoromethyl)phenyl)-3,4-dihydro-2H-pyrano[3,2-b]pyridin-4-yl)-1,6-dihydropyridine-3-carboxamide] | 125 nM
O=C(N[C@]1(c2ccc(OC(F)(F)F)c(F)c2)CCOc2cccnc21)c1ccc([N+](=O)[O-])cn1 [Example 62, (S)-N-(4-(3-fluoro-4-(trifluoromethoxy)phenyl)-3,4-dihydro-2H-pyrano[3,2-b]pyridin-4-yl)-5-nitropicolinamide] | 51 nM
CNC(=O)c1ccc(C(=O)N[C@]2(c3ccc(OC(F)(F)F)c(F)c3)CCOc3cccnc32)cn1 [Example 63, (S)-N5-(4-(3-fluoro-4-(trifluoromethoxy)phenyl)-3,4-dihydro-2H-pyrano[3,2-b]pyridin-4-yl)-N2-methylpyridine-2,5-dicarboxamide] | 19 nM
O=C(N[C@]1(c2ccc(OC(F)(F)F)c(F)c2)CCOc2cccnc21)c1ccc2[nH]c(=O)c(=O)[nH]c2c1 [Example 64, (S)—N-(4-(3-fluoro-4-(trifluoromethoxy)phenyl)-3,4-dihydro-2H-pyrano[3,2-b]pyridin-4-yl)-2,3-dioxo-1,2,3,4-tetrahydroquinoxaline-6-carboxamide] | 335 nM
CS(=O)(=O)Nc1ccc(C(=O)N[C@]2(c3ccc(OC(F)(F)F)c(F)c3)CCOc3cccnc32)nc1 [Example 65, (S)—N-(4-(3-fluoro-4-(trifluoromethoxy)phenyl)-3,4-dihydro-2H-pyrano[3,2-b]pyridin-4-yl)-5-(methylsulfonamido)picolinamide] | 12 nM
O=C(Nc1ccc(F)nc1)N[C@]1(c2ccc(OC(F)(F)F)c(F)c2)CCOc2cccnc21 [Example 66, (S)-1-(4-(3-fluoro-4-(trifluoromethoxy)phenyl)-3,4-dihydro-2H-pyrano[3,2-b]pyridin-4-yl)-3-(6-fluoropyridin-3-yl)urea 2,2,2-trifluoroacetate] | 17 nM
C[C@H](NC(=O)N[C@]1(c2ccc(C(F)(F)F)cc2)CCOc2cccnc21)C(F)(F)F [Example 67, 1-((S)-4-(4-(trifluoromethyl)phenyl)-3,4-dihydro-2H-pyrano[3,2-b]pyridin-4-yl)-3-((S)-1,1,1-trifluoropropan-2-yl)urea 2,2,2-trifluoroacetate] | 293 nM
N#Cc1ccc(NC(=O)N[C@]2(c3ccc(OC(F)(F)F)c(F)c3)CCOc3cccnc32)cc1 [Example 68, (S)-1-(4-cyanophenyl)-3-(4-(3-fluoro-4-(trifluoromethoxy)phenyl)-3,4-dihydro-2H-pyrano[3,2-b]pyridin-4-yl)urea] | 23 nM
O=C(Nc1ccc(Cl)nc1)N[C@]1(c2ccc(OC(F)(F)F)c(F)c2)CCOc2cccnc21 [Example 69, (S)-1-(6-chloropyridin-3-yl)-3-(4-(3-fluoro-4-(trifluoromethoxy)phenyl)-3,4-dihydro-2H-pyrano[3,2-b]pyridin-4-yl)urea] | 36 nM
O=C(Nc1cccnc1)NC1(c2ccc(C(F)(F)F)cc2)CCOc2ccccc21 (stereo not shown) [Example 70, 1-(pyridin-3-yl)-3-(4-(4-(trifluoromethyl)phenyl)chroman-4-yl)urea] | 1350 nM

Structure (SMILES) | IC50
O=C(Nc1cccnc1)NC1(c2ccc(C(F)(F)F)cc2)CCCc2cccnc21 (stereo not shown) [Example 71, 1-(pyridin-3-yl)-3-(8-(4-(trifluoromethyl)phenyl)-5,6,7,8-tetrahydroquinolin-8-yl)urea] | 143 nM
O=C(Nc1cccc(F)c1)N[C@]1(c2ccc(C(F)(F)F)cc2)CCOc2cccnc21 [Example 72, (S)-1-(3-fluorophenyl)-3-(4-(4-(trifluoromethyl)phenyl)-3,4-dihydro-2H-pyrano[3,2-b]pyridin-4-yl)urea] | 112 nM
O=C(Nc1cccnc1)N[C@]1(c2ccc(C(F)(F)F)cc2)CCOc2cccnc21 [Example 73, (S)-1-(pyridin-3-yl)-3-(4-(4-(trifluoromethyl)phenyl)-3,4-dihydro-2H-pyrano[3,2-b]pyridin-4-yl)urea] | 19 nM
O=C(Nc1ccc(F)cc1)N[C@]1(c2ccc(C(F)(F)F)cc2)CCOc2cccnc21 [Example 74, (S)-1-(4-fluorophenyl)-3-(4-(4-(trifluoromethyl)phenyl)-3,4-dihydro-2H-pyrano[3,2-b]pyridin-4-yl)urea] | 25 nM
O=S(=O)(N[C@]1(c2ccc(OC(F)(F)F)c(F)c2)CCOc2cccnc21)c1ccccc1 [Example 76, (S)—N-(4-(3-fluoro-4-(trifluoromethoxy)phenyl)-3,4-dihydro-2H-pyrano[3,2-b]pyridin-4-yl)benzenesulfonamide 2,2,2-trifluoroacetate] | 206 nM
O=S(=O)(N[C@]1(c2ccc(OC(F)(F)F)c(F)c2)CCOc2cccnc21)c1cccnc1 [Example 77, (S)—N-(4-(3-fluoro-4-(trifluoromethoxy)phenyl)-3,4-dihydro-2H-pyrano[3,2-b]pyridin-4-yl)pyridine-3-sulfonamide 2,2,2-trifluoroacetate] | 1340 nM
CC(C)(C)OC(=O)N[C@]1(c2ccc(OC(F)(F)F)c(F)c2)CCOc2cccnc21 [Example 78, (S)-tert-butyl (4-(3-fluoro-4-(trifluoromethoxy)phenyl)-3,4-dihydro-2H-pyrano[3,2-b]pyridin-4-yl)carbamate] | 58 nM
Cn1cc(C(=O)NC2(c3ccc(C(F)(F)F)cc3)CCOc3cccnc32)ccc1=O (stereo not shown) [Example 79, 1-methyl-6-oxo-N-(4-(4-(trifluoromethyl)phenyl)-3,4-dihydro-2H-pyrano[3,2-b]pyridin-4-yl)-1,6-dihydropyridine-3-carboxamide] | 334 nM
O=C(NC1(c2ccc(C(F)(F)F)cc2)CCOc2cccnc21)c1ccc2c(c1)CNC2=O (stereo not shown) [Example 80, 1-oxo-N-(4-(4-(trifluoromethyl)phenyl)-3,4-dihydro-2H-pyrano[3,2-b]pyridin-4-yl)isoindoline-5-carboxamide] | 21 nM
O=C(N[C@]1(c2ccc3ccccc3c2)CCOc2cccnc21)c1ccc(=O)[nH]c1 [Example 81, (S)-N-(4-(naphthalen-2-yl)-3,4-dihydro-2H-pyrano[3,2-b]pyridin-4-yl)-6-oxo-1,6-dihydropyridine-3-carboxamide] | 124 nM
O=C(Nc1cnccn1)N[C@]1(c2ccc(OC(F)(F)F)c(F)c2)CCOc2cccnc21 [Example 82, (S)-1-(4-(3-fluoro-4-(trifluoromethoxy)phenyl)-3,4-dihydro-2H-pyrano[3,2-b]pyridin-4-yl)-3-(pyrazin-2-yl)urea] | 134 nM
COC(=O)c1ccc(NC(=O)N[C@]2(c3ccc(OC(F)(F)F)c(F)c3)CCOc3cccnc32)nc1 [Example 84, (S)-methyl 6-(3-(4-(3-fluoro-4-(trifluoromethoxy)phenyl)-3,4-dihydro-2H-pyrano[3,2-b]pyridin-4-yl)ureido)nicotinate] | 266 nM
COC(=O)c1ccccc1NC(=O)N[C@]1(c2ccc(OC(F)(F)F)c(F)c2)CCOc2cccnc21 [Example 86, (S)-methyl 2-(3-(4-(3-fluoro-4-(trifluoromethoxy)phenyl)-3,4-dihydro-2H-pyrano[3,2-b]pyridin-4-yl)ureido)benzoate] | 19 nM
COC(=O)c1ccc(NC(=O)N[C@]2(c3ccc(OC(F)(F)F)c(F)c3)CCOc3cccnc32)cn1 [Example 87, (S)-methyl 5-(3-(4-(3-fluoro-4-(trifluoromethoxy)phenyl)-3,4-dihydro-2H-pyrano[3,2-b]pyridin-4-yl)ureido)picolinate] | 24 nM
O=C(Nc1ccc(Br)nc1)N[C@]1(c2ccc(OC(F)(F)F)c(F)c2)CCOc2cccnc21 [Example 88, (S)-1-(6-bromopyridin-3-yl)-3-(4-(3-fluoro-4-(trifluoromethoxy)phenyl)-3,4-dihydro-2H-pyrano[3,2-b]pyridin-4-yl)urea] | 115 nM
